Measurements as given in US11655244B2, “Carbazole compounds and methods of use thereof” (GSNO Therapeutics, Inc, priority 2017, dated 2023).
Read-outs that look alike come from different tables or passages of the source.

Columns and labels:
GSNOR enzyme [1] = target: T1, GSNOR enzyme (Homo sapiens, UniProt P11766); assay: GSNOR inhibition assay (rate of NADH consumption, 340 nm absorbance); format: biochemical
Procedure: The following compounds were also prepared based on the methods described herein, using the appropriate starting materials. Table 2a and Table 2b also provides the % GSNOR inhibition at 20 μM of compounds described herein. […] The buffer was 100 mM phosphate buffer (pH 7.4.) The rate of NADH consumption for each well was determined by ultraviolet spectroscopy. Plates were read on a Molecular Devices Spectra Max UV/Visible Spectrophotometer/plate reader and the change in 340 nm absorbance at 25° C. was recorded for each well at 10 sec intervals over the duration of the recording period (2˜5 minutes). The rate was measured from the linear portion of the curve. Final test compound concentration was 20 μM. The mean % inhibition from 3 test compound wells and 5 control wells was measured as the percentage of the mean no compound+enzyme−the mean no enzyme, no compound control.

GSNOR enzyme [2] = target: T1, GSNOR enzyme; assay: as above; format: biochemical; conditions: Table 2b; read-out: IC50 Micromolar
IL-6 = assay: LPS/cytokine assay (mouse inflammation assay), IL-6; format: in vivo, CD-1 male mice; conditions: for LPS/IL6 Lowest tested active: CD-1 male mice, IP or IV, cytokine typically 6 hrs after LPS
Procedure: Table 2b also includes additional biological data of compounds described herein. The LPS/cytokine Assay was carried out in CD-1 male mice. The assay measured the level of various cytokines, including IL-6, IL-17, and IL-23, after induction by bacterial liposaccharide (LPS). Compounds were dosed by IP or IV routes of administration at varying times before and after LPS and the cytokine concentrations were measured at varying times, typically 6 hrs, after LPS by standard methods using ELISA kits.
BIOLOGICAL TESTING: Compounds 10 and 17 from Table 1 were tested in a mouse inflammation assay. Briefly, CD-1 mice were dosed with compound, 12 hrs before injecting mice I.P. with the potent cytokine inducer, bacterial lipopolysaccharide (LPS). The mice were euthanized 6 hrs after the LPS was injected and their serum prepared by standard methods. The concentration of IL-6 in the serum of each experimental animal was measured using an IL-6 ELISA kit from Enzo. The compounds tested were active.
This LPS/cytokine assay was carried out in healthy mice and measured the level of cytokine IL-6, IL-17, and 23 induction by LPS. Compounds are dosed (either orally (“p.o.”) or intravenously (“i.v.”) at varying times before and after LPS, and the cytokines are measured at varying times after LPS. The effect of the tested compounds (Table 5) on IL-6 release is shown in FIG. 7. The effect of the tested compounds (Table 6) on IL-17 an IL-23 release is shown in FIG. 11 and FIG. 12, respectively.

[3] = Table 2a, test compound 20 μM, pH 7.4, 25° C., read-out: % Inhibit. at 20 μM
[4] = Table 2b, test compound 20 uM, read-out: % GSNOR Inhibition at 20 uM

T1 sequence (P11766 whole entry): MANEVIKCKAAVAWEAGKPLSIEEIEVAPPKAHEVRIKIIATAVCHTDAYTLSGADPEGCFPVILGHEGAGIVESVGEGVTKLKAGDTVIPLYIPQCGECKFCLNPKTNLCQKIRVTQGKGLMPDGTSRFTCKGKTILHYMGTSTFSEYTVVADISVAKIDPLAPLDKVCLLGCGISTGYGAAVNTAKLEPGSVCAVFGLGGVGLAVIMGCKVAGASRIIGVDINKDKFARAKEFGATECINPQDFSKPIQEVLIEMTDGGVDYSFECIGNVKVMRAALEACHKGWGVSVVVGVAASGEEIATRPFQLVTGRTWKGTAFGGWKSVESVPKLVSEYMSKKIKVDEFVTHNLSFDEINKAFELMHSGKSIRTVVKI

inhibition at 20 µM (GSNOR enzyme [1]; [3]) | inhibition at 20 µM (GSNOR enzyme [1]; [4]) | IC50 (GSNOR enzyme [2]) | Compound | LPS/IL6 Lowest tested active (IL-6) | IL-6 in serum after LPS (mouse inflammation assay) (IL-6; dosed 12 hrs before LPS I.P., serum 6 hrs after LPS)
– | 90% | – | COc1ccc(-n2c3ccc(-n4ccnc4)cc3c3ccc(CCC(=O)O)cc32)cc1 [Compound 24] | – | –
– | 88.9% | 1 to 5 µM | NC(=O)c1ccc(-n2c3ccc(-n4ccnc4)cc3c3ccc(CCC(=O)O)cc32)cc1 [Compound 20] | 0.3 mg/kg | –
– | 93.4% | – | O=C(O)CCc1ccc2c3cc(-n4ccnc4)ccc3n(-c3ccc(O)cc3)c2c1 [Compound 23] | – | –

The next lines start with the compound.

Compound | inhibition at 20 µM (GSNOR enzyme [1]; [3]) | inhibition at 20 µM (GSNOR enzyme [1]; [4]) | IC50 (GSNOR enzyme [2]) | LPS/IL6 Lowest tested active (IL-6) | IL-6 in serum after LPS (mouse inflammation assay) (IL-6; dosed 12 hrs before LPS I.P., serum 6 hrs after LPS)
NC(=O)CCn1c2cc(Cn3ccnc3)ccc2c2ccc(C(=O)O)cc21 [Compound 8, 9-(3-amino-3-oxopropyl)-7-[(1H-imidazol-1-yl)methyl]-9H-carbazole-2-carboxylic acid] | 80% | 80% | 1 to 5 µM | – | –
Cc1cc(C#N)ccc1-n1c2ccc(-n3ccnc3)cc2c2ccc(CCC(=O)O)cc21 [Compound 19] | – | 81.3% | 1 to 5 µM | – | –
N#Cc1ccc(-n2c3cc(CNc4ncco4)ccc3c3ccc(C(=O)O)cc32)c([N+](=O)[O-])c1 [Compound H1, 9-(4-cyano-2-nitrophenyl)-7-((oxazol-2-ylamino)methyl)-9H-carbazole-2-carboxylic acid] | 0% | – | – | – | –
N#CCCn1c2ccc(-n3ccnc3)cc2c2ccc(CCC(=O)O)cc21 [Compound 26, 3-(imidazol-1(H)-yl)-7-(2-carboxylethyl)-9(H)-(2-cyanoethyl) carbazole] | – | 92.4% | < 1 µM | 0.3 mg/kg | –
Cc1cc(C(N)=O)ccc1-n1c2ccc(-n3ccnc3)cc2c2ccc(CCC(=O)O)cc21 [Compound 21] | – | 93.6% | 1 to 5 µM | 0.3 mg/kg | –
NC(=O)CCn1c2ccc(-n3ccnc3)cc2c2ccc(C(=O)O)cc21 [Compound 10, 9-(3-amino-3-oxopropyl)-6-(1H-imidazo-1-yl)-9H-carbazole-2-carboxylic acid] | 85% | 75% | < 1 µM | 30 mg/kg | active
